The values that follow come from patent US6632963B1, “Bicyclic aromatic compounds and pharmaceutical/cosmetic compositions comprised thereof” (Galderma Research & Development S.N.C., priority 1998, dated 2003).

The target of data set [1] is T1, RXRα (Homo sapiens, UniProt P19793).
T1 sequence (P19793 1-462): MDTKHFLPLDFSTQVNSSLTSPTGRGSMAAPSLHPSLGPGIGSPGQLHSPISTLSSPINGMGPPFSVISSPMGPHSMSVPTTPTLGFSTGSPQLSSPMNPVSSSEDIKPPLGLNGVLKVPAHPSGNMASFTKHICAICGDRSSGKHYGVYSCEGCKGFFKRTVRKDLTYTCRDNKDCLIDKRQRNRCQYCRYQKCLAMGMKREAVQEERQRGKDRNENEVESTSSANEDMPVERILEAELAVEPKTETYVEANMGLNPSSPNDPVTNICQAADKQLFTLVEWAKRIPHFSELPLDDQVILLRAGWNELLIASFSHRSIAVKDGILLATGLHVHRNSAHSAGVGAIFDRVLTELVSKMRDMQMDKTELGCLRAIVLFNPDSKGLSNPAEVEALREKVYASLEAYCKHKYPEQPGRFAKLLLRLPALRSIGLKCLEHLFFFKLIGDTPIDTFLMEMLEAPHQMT
As to the kind of experiment: RXRα transactivation, agonist activity. The format is cell-based. An excerpt: The binding and transactivation properties as RXR-receptor agonists can be determined by methods known in the art, such as, for example: Levin et al., Nature, 355, 359-61 (1992); Allenby et al., Proc. Natl. Acad. Sci., 90, 30-4 (1993).

Data set [2] has as its target T1, RXRα. As to the kind of experiment: cell-based.

The term IC50 denotes the concentration that gives 50% inhibition. A lower IC50 goes with inhibition by little substance. Take `CCCCCOc1cc2c(cc1-c1cc(C=CC(=O)O)ccc1OCOC)C(C)(C)CCC2(C)C` [Compound 9, 3-[3-(3-Pentyloxy-5,5,8,8-tetramethyl-5,6,7,8-tetrahydro-2-naphthyl)-4-methoxymethoxyphenyl]acrylic Acid]: the “RXRα transactivation Agonist AC50 (nM)” value on RXRα [1] was “inactive”. The IC50 against RXRα [2] was found to be 631 nM.

What is called melting point is the temperature, or range, at which the solid turns liquid. With `COCOc1c(-c2cccc(C=CC(=O)O)c2)ccc2c1C(C)(C)CCC2(C)C`, the melting point was in the range of 188 to 189 °C.

`COCOc1ccc(C=CC(=O)O)cc1-c1cc2c(cc1OCc1ccccc1)C(C)(C)CCC2(C)C` [Compound 5, 3-[3-(3-Benzyloxy-5,5,8,8-tetramethyl-5,6,7,8-tetrahydro-2-naphthyl)-4-methoxymethoxyphenyl]acrylic Acid]: at RXRα [1], the “RXRα transactivation Agonist AC50 (nM)” value is “inactive”. The IC50 at RXRα [2] is 4000 nM.

By AC50 is commonly meant the midpoint of the concentration-response curve, whichever way the signal moves. Take `COCOc1ccc(C#CC(=O)O)cc1-c1cc2c(cc1C)C(C)(C)CCC2(C)C` [Compound 7, [4-Methoxymethoxy-3-(3,5,5,8,8-pentamethyl-5,6,7,8-tetrahydro-2-naphthyl)phenyl]propynoic Acid]: at RXRα [1], the AC50 stood at 32 nM.

`COc1c(-c2cc(C=CC(=O)O)ccc2O)cc(C(C)(C)C)cc1C(C)(C)C` [Compound 4, 3-(3′,5′-di-tert-Butyl-6-hydroxy-2′-methoxy-3-biphenylyl)acrylic Acid] came in with an AC50 at RXRα [1] of 165 nM.

For `CCCOc1cc2c(cc1-c1cc(C=CC(=O)O)ccc1OCOC)C(C)(C)CCC2(C)C` [Compound 8, 3-[3-(3-Propyloxy-5,5,8,8-tetramethyl-5,6,7,8-tetrahydro-2-naphthyl)-4-methoxymethoxyphenyl]acrylic Acid], the “RXRα transactivation Agonist AC50 (nM)” value on RXRα [1] is “inactive”. In addition, on RXRα [2], the IC50 was found to be 1100 nM.

As for `CC(C)(C)c1cc(-c2cc(C=CC(=O)O)ccc2O)c(OCc2ccccc2)c(C(C)(C)C)c1` [Compound 2, 3-(2′-Benzyloxy-3′,5′-di-tert-butyl-6-hydroxy-3-biphenylyl)acrylic Acid], on RXRα [1], the “RXRα transactivation Agonist AC50 (nM)” value is “inactive”. The same compound showed an IC50 on RXRα [2] of 920 nM.

`COc1c(-c2cccc(C=CC(=O)O)c2)cc(C(C)(C)C)cc1C(C)(C)C` [Compound 1, 3-(3′,5′-di-tert-Butyl-2′-methoxy-3-biphenylyl)acrylic Acid] had an AC50 on RXRα [1] of 384 nM.

As for `CCCCCOc1c(-c2cc(C=CC(=O)O)ccc2O)cc(C(C)(C)C)cc1C(C)(C)C` [Compound 3, 3-(3′,5′-di-tert-Butyl-6-hydroxy-2′-pentyloxy-3-biphenylyl)acrylic Acid], the “RXRα transactivation Agonist AC50 (nM)” value on RXRα [1] is “inactive”. The compound further had an IC50 against RXRα [2] of 729 nM.

Regarding `CC1(C)CCC(C)(C)c2cc(-c3cc(C=CC(=O)O)ccc3O)c(OCc3ccccc3)cc21` [Compound 6, 3-[3-(3-Benzyloxy-5,5,8,8-tetramethyl-5,6,7,8-tetrahydro-2-naphthyl)-4-hydroxyphenyl]acrylic Acid], the “RXRα transactivation Agonist AC50 (nM)” value on RXRα [1] was “inactive”. In addition, the IC50 against RXRα [2] was 505 nM.
